We go through 23 compounds from the supplement of paper PMC5412046.

Structures can show the parent of a compound that is named as a salt.

The subject of assay [1] is SB.mhdgc-1. As to the kind of experiment: area under the dose-response curve of % viability (trapezoidal, 11 doses) (% viability x log10 concentration); higher = less cytotoxic. The conditions noted are these: SB.mhdgc-1 (hereditary c.1380delA CDH1 gastric cancer). In a few lines: (§1)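 Hereditary or sporadic patient-derived gastric cancer cells (500 cells in 5 μL medium per 1536 well) received 23 nL compound in DMSO by pintool at 11 threefold-diluted concentrations, with the top concentration recorded per compound. After 48 h, CellTiter-Glo was added for 30 min at room temperature and luminescence read on a ViewLux. Values are DMSO-normalised viability, either at the highest concentration or as trapezoidal area under the curve.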

Assay [2] concerns SB.msgc-1. The description is as above. The conditions noted are these: SB.msgc-1 (sporadic gastric cancer). In a few lines: as §1
The subject of assay [3] is SB.mhdgc-1. As to the kind of experiment: viability at highest tested concentration (MAXR) relative to DMSO; higher = less cytotoxic. The note with it: SB.mhdgc-1 (hereditary c.1380delA CDH1 gastric cancer). Put shortly: as §1
Assay [4] deals with SB.msgc-1. Described as above. The conditions noted are these: SB.msgc-1 (sporadic gastric cancer). In a few lines:
as §1

Broadly, the viability is a read-out of living cells in per cent, often relative to untreated cells. As for `C[C@H]1O[C@H]([C@H](O)[C@@H]1O)N2\C=C(F)/C(=O)NC2=O` [Doxifluridine] (top concentration 46.0829 µM), the “area under the dose-response curve” value in the assay on SB.mhdgc-1 [1] worked out at 457; in the assay with SB.msgc-1 [2], 567. Also, the figures for the viability with SB.mhdgc-1 [3] and in the assay on SB.msgc-1 [4] were 58.7% and 65.6%, respectively.
Regarding `CN1[C@@H]2CC(OC(=O)[C@@H](CO)c3ccccc3)C[C@H]1[C@H]1O[C@H]12` (some centres not stated) [Scopolamine] (top concentration 27.1225 µM), the “area under the dose-response curve” value with SB.mhdgc-1 [1] stood at 506; in the assay on SB.msgc-1 [2] it was 485. The results for the viability with SB.mhdgc-1 [3] and with SB.msgc-1 [4] were 75% and 99.7%, respectively.
With `Clc1ccc(C(c2ccccc2Cl)C(Cl)Cl)cc1` (configuration not stated) [Mitotane] (top concentration 46.0829 µM), the “area under the dose-response curve” value with SB.mhdgc-1 [1] is 478; in the assay on SB.msgc-1 [2], 497. The viability is 51% with SB.mhdgc-1 [3] and 59.8% in the assay with SB.msgc-1 [4].
`C[C@@H]1CC[C@@]2(CC[C@]3(C)\C(=C/C[C@@H]4[C@@]5(C)CC[C@H](O)C(C)(C)[C@@H]5CC[C@@]34C)[C@@H]2[C@H]1C)C(O)=O` [Ursolic acid] (top concentration 92.1659 µM): the “area under the dose-response curve” value stood at 478 in the assay on SB.mhdgc-1 [1] and 495 with SB.msgc-1 [2]. For the same compound, the values for the viability in the assay on SB.mhdgc-1 [3] and with SB.msgc-1 [4] were 3.71% and 4.45%, respectively.
As to `Cc1nc(Nc2ncc(C(=O)Nc3c(C)cccc3Cl)s2)cc(N2CCN(CCO)CC2)n1` [Dasatinib] (top concentration 46.0829 µM), the “area under the dose-response curve” value in the assay with SB.mhdgc-1 [1] was 416; in the assay with SB.msgc-1 [2], 398. Besides, the viability in the assay on SB.mhdgc-1 [3] was found to be 53.2%; in the assay with SB.msgc-1 [4], 37.8%.
As for `CCNC(=O)[C@H]1O[C@@H](n2cnc3c(N)nc(NCCc4ccc(CCC(=O)O)cc4)nc32)[C@H](O)[C@@H]1O` (top concentration 46.0829 µM), the “area under the dose-response curve” value in the assay on SB.mhdgc-1 [1] came out at 548; in the assay on SB.msgc-1 [2], 454. In addition, the viability with SB.mhdgc-1 [3] is 114%; with SB.msgc-1 [4], 76.4%.
`C[S+](=O)([O-])c1cccc(CNc2nc(Nc3ccc4c(c3)CCC(=O)N4)ncc2C(F)(F)F)c1` (top concentration 46.0829 µM): the “area under the dose-response curve” value in the assay on SB.mhdgc-1 [1] was found to be 462; with SB.msgc-1 [2] it was 547. Further, the results for the viability with SB.mhdgc-1 [3] and with SB.msgc-1 [4] were 58.8% and 57.3%, respectively.
For `Cc1cc(C(=O)N2CCN(c3cccc(Cl)c3)CC2)n(-c2ccccc2)n1` [XRP-44X] (top concentration 46.0829 µM) the same measures were 452, 471, 46.5% and 35.7%.
In the case of `C[C@H](NC(=O)[C@@H](O)c1cc(F)cc(F)c1)C(=O)N[C@@H]1C(=O)N(C)c2ccccc2-c2ccccc21` (top concentration 46.0829 µM), the “area under the dose-response curve” value stood at 500 in the assay on SB.mhdgc-1 [1] and 522 in the assay on SB.msgc-1 [2]. The viability was determined as 88.9% in the assay on SB.mhdgc-1 [3] and 97.4% with SB.msgc-1 [4].
Take `CC(C)C[C@H](CN)CC(=O)O` [Pregabalin] (top concentration 46.0829 µM): the “area under the dose-response curve” value in the assay on SB.mhdgc-1 [1] is 585; in the assay with SB.msgc-1 [2], 388. In addition, the viability in the assay on SB.mhdgc-1 [3] came to 117%; in the assay on SB.msgc-1 [4] it was 76.5%.
For `CC(C)C[C@@H](N)[C@H](O)C(=O)N[C@H](C(=O)N[C@H](C(=O)N[C@@H](CC(=O)O)C(=O)O)C(C)C)C(C)C` [Amastatin] (top concentration 46.0829 µM) the same measures were 543, 474, 84% and 97.6%.
Consider `CC(C)(OCc1nn(Cc2ccccc2)c2ccccc12)C(=O)O` [Bindarit] (top concentration 46.0829 µM), for which the “area under the dose-response curve” value with SB.mhdgc-1 [1] came to 530; in the assay with SB.msgc-1 [2], 310. Moreover, the viability amounted to 72.5% with SB.mhdgc-1 [3] and 23.8% in the assay with SB.msgc-1 [4].
For `Cc1cccc(Nc2nc(-c3ccncc3)cs2)c1` (top concentration 46.0829 µM), in that order: 477, 503, 40.5% and 55.6%.
Consider `CCC[S+](=O)([O-])Nc1ccc(F)c(C(=O)c2c[nH]c3ncc(Cl)cc23)c1F` [PLX-4720] (top concentration 46.0829 µM), for which the “area under the dose-response curve” value in the assay on SB.mhdgc-1 [1] is 459; in the assay on SB.msgc-1 [2], 521. Moreover, the viability in the assay with SB.mhdgc-1 [3] worked out at 66.8%; in the assay with SB.msgc-1 [4], 44.8%.
In the case of `CC1=C(C)C2=C(S1)[N]3C(=NN=C3[C@H](CC(=O)OC(C)(C)C)/N=C2/C4=CC=C(Cl)C=C4)C` [JQ1] (top concentration 46.0829 µM), the “area under the dose-response curve” value with SB.mhdgc-1 [1] is 450; with SB.msgc-1 [2], 342. The results for the viability in the assay with SB.mhdgc-1 [3] and in the assay with SB.msgc-1 [4] were 3.31% and 3.47%, respectively.
On to `NC1=C(Cl)C(=CC=N1)OC2=C(F)C=C(NC(=O)\C3=C\N\C=C(C3=O)\C4=CC=C(F)C=C4)C=C2` (top concentration 46.0829 µM), for which the entries for the “area under the dose-response curve” value in the assay with SB.mhdgc-1 [1] and in the assay on SB.msgc-1 [2] were 413 and 497, respectively. For the same compound, the viability came out at 62.3% in the assay with SB.mhdgc-1 [3] and 41.1% in the assay with SB.msgc-1 [4].
For `CC(C)Oc1cc(Nc2nc(N[C@@H](C)c3ccc(F)cn3)ncc2Cl)n[nH]1` [AZ-23] (top concentration 46.0829 µM) the same measures were 473, 499, 40.2% and 32%.
For the compound `CC1(N2CCC(n3c([C@@H]4CCCNC4)nc4ccccc43)CC2)CCCCCCC1` [MCOPPB] (top concentration 46.0829 µM), the results for the “area under the dose-response curve” value in the assay on SB.mhdgc-1 [1] and in the assay with SB.msgc-1 [2] were 451 and 530, respectively. The viability worked out at 4.64% in the assay with SB.mhdgc-1 [3] and 78.1% in the assay on SB.msgc-1 [4].
For `C[C@@H](Oc1cc(-c2cnn(C3CCNCC3)c2)cnc1N)c1c(Cl)ccc(F)c1Cl` [Crizotinib] (top concentration 46.0829 µM) the same measures were 504, 484, 0.758% and 3.37%.
As to `CC1(CN2CCC(n3c(=O)[nH]c4ccccc43)CC2)OCc2ccccc2-n2cccc21` (configuration not stated) [Zaldaride maleate] (top concentration 46.0829 µM), the “area under the dose-response curve” value was determined as 510 in the assay with SB.mhdgc-1 [1] and 325 in the assay with SB.msgc-1 [2]. For the same compound, the viability in the assay with SB.mhdgc-1 [3] is 5.92%; with SB.msgc-1 [4], 20.3%.
For `CC(=O)N(C)c1cccc(-c2ccnc3c(C(=O)c4cccs4)cnn23)c1` [Indiplon] (top concentration 46.0829 µM) the same measures were 571, 489, 101% and 64.2%.
On to `O=[S+]([O-])(CC1CS1)c1ccc(Oc2ccccc2)cc1` (configuration not stated) [SB-3CT] (top concentration 46.0829 µM), for which the “area under the dose-response curve” value in the assay with SB.mhdgc-1 [1] stood at 510; in the assay with SB.msgc-1 [2] it was 497. Further, the viability is 8.55% in the assay on SB.mhdgc-1 [3] and 57.8% with SB.msgc-1 [4].
Take `O=C1CCC[C@@H]2[C@H]3CCC[N+]4([O-])CCC[C@@H](CN12)[C@@H]34` (some centres not stated) [Oxymatrine] (top concentration 46.0829 µM): the entries for the “area under the dose-response curve” value in the assay with SB.mhdgc-1 [1] and in the assay with SB.msgc-1 [2] were 504 and 525, respectively. For the same compound, the viability in the assay with SB.mhdgc-1 [3] was found to be 134%; in the assay on SB.msgc-1 [4], 122%.
